Results reported in PubChem BioAssay AID1918954 (Molecular Pharmacology Branch, DTP, NCI, 2023).
pIC50: −log10 of the molar value.

Tested on: MDA-MB-468 complex spheroids with HUVEC/MSC, viability
Experiment: Anticancer human tumor MDA-MB-468 cell line growth inhibition;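 also: spheroids exposed to agents for seven days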;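 as to viability, T/C: 100% = DMSO vehicle control viability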
Conditions: for pIC50: curve of first compound; for viability, T/C: stronger effect = lower value
In short: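 Drug combinations with the LSD1 inhibitor iadademstat tested on tumor cells co-cultured as spheroids with endothelial cells and mesenchymal stem cells. Concentrations descended in half-log increments from clinical Cmax or 10 microM.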

[1] = second compound 0.1 µM, first compound 0.000316 µM
[2] = second compound 0.1 µM, first compound 0.001 µM
[3] = second compound 0.1 µM, first compound 0.00316 µM
[4] = second compound 0.1 µM, first compound 0.01 µM
[5] = second compound 0.1 µM, first compound 0.0316 µM
[6] = second compound 0.1 µM, first compound 0.1 µM
[7] = second compound 0.316 µM, first compound 0.000316 µM
[8] = second compound 0.316 µM, first compound 0.001 µM
[9] = second compound 0.316 µM, first compound 0.00316 µM
[10] = second compound 0.316 µM, first compound 0.01 µM
[11] = second compound 0.316 µM, first compound 0.0316 µM
[12] = second compound 0.316 µM, first compound 0.1 µM
[13] = second compound 1 µM, first compound 0.000316 µM
[14] = second compound 1 µM, first compound 0.001 µM
[15] = second compound 1 µM, first compound 0.00316 µM
[16] = second compound 1 µM, first compound 0.01 µM
[17] = second compound 1 µM, first compound 0.0316 µM
[18] = second compound 1 µM, first compound 0.1 µM
[19] = second compound 3.16 µM, first compound 0.000316 µM
[20] = second compound 3.16 µM, first compound 0.001 µM
[21] = second compound 3.16 µM, first compound 0.00316 µM
[22] = second compound 3.16 µM, first compound 0.01 µM
[23] = second compound 3.16 µM, first compound 0.0316 µM
[24] = second compound 3.16 µM, first compound 0.1 µM
[25] = second compound 10 µM, first compound 0.000316 µM
[26] = second compound 10 µM, first compound 0.001 µM
[27] = second compound 10 µM, first compound 0.00316 µM
[28] = second compound 10 µM, first compound 0.01 µM
[29] = second compound 10 µM, first compound 0.0316 µM
[30] = second compound 10 µM, first compound 0.1 µM
[31] = second compound 0.1 µM, first compound 0.00949 µM
[32] = second compound 0.1 µM, first compound 0.03 µM
[33] = second compound 0.1 µM, first compound 0.0949 µM
[34] = second compound 0.1 µM, first compound 0.3 µM
[35] = second compound 0.1 µM, first compound 0.949 µM
[36] = second compound 0.1 µM, first compound 3 µM
[37] = second compound 0.316 µM, first compound 0.00949 µM
[38] = second compound 0.316 µM, first compound 0.03 µM
[39] = second compound 0.316 µM, first compound 0.0949 µM
[40] = second compound 0.316 µM, first compound 0.3 µM
[41] = second compound 0.316 µM, first compound 0.949 µM
[42] = second compound 0.316 µM, first compound 3 µM
[43] = second compound 1 µM, first compound 0.00949 µM
[44] = second compound 1 µM, first compound 0.03 µM
[45] = second compound 1 µM, first compound 0.0949 µM
[46] = second compound 1 µM, first compound 0.3 µM
[47] = second compound 1 µM, first compound 0.949 µM
[48] = second compound 1 µM, first compound 3 µM
[49] = second compound 3.16 µM, first compound 0.00949 µM
[50] = second compound 3.16 µM, first compound 0.03 µM
[51] = second compound 3.16 µM, first compound 0.0949 µM
[52] = second compound 3.16 µM, first compound 0.3 µM
[53] = second compound 3.16 µM, first compound 0.949 µM
[54] = second compound 3.16 µM, first compound 3 µM
[55] = second compound 10 µM, first compound 0.00949 µM
[56] = second compound 10 µM, first compound 0.03 µM
[57] = second compound 10 µM, first compound 0.0949 µM
[58] = second compound 10 µM, first compound 0.3 µM
[59] = second compound 10 µM, first compound 0.949 µM
[60] = second compound 10 µM, first compound 3 µM

## CC(C)CC(NC(=O)CNC(=O)c1cc(Cl)ccc1Cl)B1OC(=O)CC(CC(=O)O)(C(=O)O)O1 (stereo not given) + NC1CCC(NC2CC2c2ccccc2)CC1
Second compound 0.1 µM
  pIC50: 8.41
Second compound 0.316 µM
  pIC50: 8.40
Second compound 1 µM
  pIC50: 8.48
Second compound 3.16 µM
  pIC50: 8.36
Second compound 10 µM
  pIC50: 8.52
[1]
  viability, T/C: 110%
[2]
  viability, T/C: 115%
[3]
  viability, T/C: 59.5%
[4]
  viability, T/C: 8.34%
[5]
  viability, T/C: 1.37%
[6]
  viability, T/C: 1.7%
[7]
  viability, T/C: 98.6%
[8]
  viability, T/C: 99.2%
[9]
  viability, T/C: 60.4%
[10]
  viability, T/C: 7.32%
[11]
  viability, T/C: 2.63%
[12]
  viability, T/C: 1.14%
[13]
  viability, T/C: 89.9%
[14]
  viability, T/C: 118%
[15]
  viability, T/C: 52.1%
[16]
  viability, T/C: 9.33%
[17]
  viability, T/C: 1.32%
[18]
  viability, T/C: 1.76%
[19]
  viability, T/C: 72.7%
[20]
  viability, T/C: 101%
[21]
  viability, T/C: 67%
[22]
  viability, T/C: 7.42%
[23]
  viability, T/C: 1.53%
[24]
  viability, T/C: 1.59%
[25]
  viability, T/C: 80.6%
[26]
  viability, T/C: 65.4%
[27]
  viability, T/C: 50.3%
[28]
  viability, T/C: 4.74%
[29]
  viability, T/C: 2.13%
[30]
  viability, T/C: 2.15%

## COc1cc(Nc2ncc3c(n2)-c2ccc(Cl)cc2C(c2c(F)cccc2OC)=NC3)ccc1C(=O)O + NC1CCC(NC2CC2c2ccccc2)CC1
Second compound 0.1 µM
  pIC50: 8.26
Second compound 0.316 µM
  pIC50: 8.24
Second compound 1 µM
  pIC50: 8.25
Second compound 3.16 µM
  pIC50: 8.36
Second compound 10 µM
  pIC50: 8.37
[3]
  viability, T/C: 67.1%
[4]
  viability, T/C: 31%
[5]
  viability, T/C: 15.9%
[6]
  viability, T/C: 7.27%
Second compound 0.1 µM, first compound 0.316 µM
  viability, T/C: 7.36%
Second compound 0.1 µM, first compound 1 µM
  viability, T/C: 6.36%
[9]
  viability, T/C: 70.7%
[10]
  viability, T/C: 30.2%
[11]
  viability, T/C: 16.6%
[12]
  viability, T/C: 8.6%
Second compound 0.316 µM, first compound 0.316 µM
  viability, T/C: 7.02%
Second compound 0.316 µM, first compound 1 µM
  viability, T/C: 7.03%
[15]
  viability, T/C: 69%
[16]
  viability, T/C: 29.8%
[17]
  viability, T/C: 17.8%
[18]
  viability, T/C: 8.46%
Second compound 1 µM, first compound 0.316 µM
  viability, T/C: 6.49%
Second compound 1 µM, first compound 1 µM
  viability, T/C: 7.09%
[21]
  viability, T/C: 57.8%
[22]
  viability, T/C: 30.5%
[23]
  viability, T/C: 19.4%
[24]
  viability, T/C: 9.33%
Second compound 3.16 µM, first compound 0.316 µM
  viability, T/C: 7.94%
Second compound 3.16 µM, first compound 1 µM
  viability, T/C: 6.66%
[27]
  viability, T/C: 57.7%
[28]
  viability, T/C: 28%
[29]
  viability, T/C: 19.1%
[30]
  viability, T/C: 11.6%
Second compound 10 µM, first compound 0.316 µM
  viability, T/C: 8.23%
Second compound 10 µM, first compound 1 µM
  viability, T/C: 9.73%

## Cn1ncnc1C1c2n[nH]c(=O)c3cc(F)cc(c23)NC1c1ccc(F)cc1 (stereo not given) + NC1CCC(NC2CC2c2ccccc2)CC1
Second compound 0.1 µM
  pIC50: 7.04
Second compound 0.316 µM
  pIC50: < 7.00
Second compound 1 µM
  pIC50: < 7.00
Second compound 3.16 µM
  pIC50: < 7.00
Second compound 10 µM
  pIC50: 7.62
[1]
  viability, T/C: 74.5%
[2]
  viability, T/C: 81.9%
[3]
  viability, T/C: 81.3%
[4]
  viability, T/C: 71.8%
[5]
  viability, T/C: 70.8%
[6]
  viability, T/C: 47.8%
[7]
  viability, T/C: 94.9%
[8]
  viability, T/C: 84.6%
[9]
  viability, T/C: 91.5%
[10]
  viability, T/C: 76.9%
[11]
  viability, T/C: 70.8%
[12]
  viability, T/C: 49.5%
[13]
  viability, T/C: 65.5%
[14]
  viability, T/C: 85%
[15]
  viability, T/C: 80.4%
[16]
  viability, T/C: 65.7%
[17]
  viability, T/C: 60.4%
[18]
  viability, T/C: 50.3%
[19]
  viability, T/C: 80.6%
[20]
  viability, T/C: 86.9%
[21]
  viability, T/C: 72.7%
[22]
  viability, T/C: 62.7%
[23]
  viability, T/C: 60.3%
[24]
  viability, T/C: 54.7%
[25]
  viability, T/C: 67.5%
[26]
  viability, T/C: 57%
[27]
  viability, T/C: 62.4%
[28]
  viability, T/C: 56.4%
[29]
  viability, T/C: 46.7%
[30]
  viability, T/C: 40.3%

## NS(=O)(=O)OCC1CC(n2ccc3c(NC4CCc5ccccc54)ncnc32)CC1O (stereo not given) + NC1CCC(NC2CC2c2ccccc2)CC1
Second compound 0.1 µM
  pIC50: 7.61
Second compound 0.316 µM
  pIC50: 7.55
Second compound 1 µM
  pIC50: 7.56
Second compound 3.16 µM
  pIC50: 7.69
Second compound 10 µM
  pIC50: > 8.02
[31]
  viability, T/C: 74.4%
[32]
  viability, T/C: 45%
[33]
  viability, T/C: 16.9%
[34]
  viability, T/C: 9.63%
[35]
  viability, T/C: 6.43%
[36]
  viability, T/C: 4.54%
[37]
  viability, T/C: 75.9%
[38]
  viability, T/C: 48.4%
[39]
  viability, T/C: 17.9%
[40]
  viability, T/C: 8.22%
[41]
  viability, T/C: 6.34%
[42]
  viability, T/C: 4.71%
[43]
  viability, T/C: 66%
[44]
  viability, T/C: 48.9%
[45]
  viability, T/C: 14.8%
[46]
  viability, T/C: 9.7%
[47]
  viability, T/C: 7.19%
[48]
  viability, T/C: 4.84%
[49]
  viability, T/C: 69.5%
[50]
  viability, T/C: 40.7%
[51]
  viability, T/C: 16.4%
[52]
  viability, T/C: 8.71%
[53]
  viability, T/C: 6.1%
[54]
  viability, T/C: 4.26%
[55]
  viability, T/C: 46.8%
[56]
  viability, T/C: 27%
[57]
  viability, T/C: 11.4%
[58]
  viability, T/C: 5.55%
[59]
  viability, T/C: 4.09%
[60]
  viability, T/C: 3.17%

## O=C(C=Cc1cccc(S(=O)(=O)Nc2ccccc2)c1)NO + NC1CCC(NC2CC2c2ccccc2)CC1
Second compound 0.1 µM
  pIC50: 7.09
Second compound 0.316 µM
  pIC50: 7.11
Second compound 1 µM
  pIC50: 7.17
Second compound 3.16 µM
  pIC50: 7.21
Second compound 10 µM
  pIC50: 8.01
[31]
  viability, T/C: 90.7%
[32]
  viability, T/C: 81.5%
[33]
  viability, T/C: 44.5%
[34]
  viability, T/C: 15%
[35]
  viability, T/C: 2.65%
[36]
  viability, T/C: 4.46%
[37]
  viability, T/C: 86.7%
[38]
  viability, T/C: 73.6%
[39]
  viability, T/C: 45.1%
[40]
  viability, T/C: 17%
[41]
  viability, T/C: 2.84%
[42]
  viability, T/C: 4.29%
[43]
  viability, T/C: 74.1%
[44]
  viability, T/C: 65.7%
[45]
  viability, T/C: 42.9%
[46]
  viability, T/C: 18.7%
[47]
  viability, T/C: 3.4%
[48]
  viability, T/C: 3.26%
[49]
  viability, T/C: 68.9%
[50]
  viability, T/C: 64.4%
[51]
  viability, T/C: 41%
[52]
  viability, T/C: 15.4%
[53]
  viability, T/C: 3.52%
[54]
  viability, T/C: 3.55%
[55]
  viability, T/C: 49.8%
[56]
  viability, T/C: 48.4%
[57]
  viability, T/C: 36.3%
[58]
  viability, T/C: 13.8%
[59]
  viability, T/C: 3.3%
[60]
  viability, T/C: 2.37%
